What was measured:
rSARS-CoV-2/Nluc = assay: microbe, parasite or virus in culture; type: cell-based, SARS-CoV-2; details: for EC50: Severe acute respiratory syndrome coronavirus 2, Calu-3, read-out: EC50, SARS-CoV-2 infection, Calu-3 cells
JAK2 = details: ref Stebbing et al.,2021; Klaeger et al.,2017; cited from earlier work
TYK2 = details: ref Stebbing et al.,2021; Klaeger et al.,2017; cited from earlier work
STK10 = details: ref Asquith et al., 2019a, 2019b; Davis et al.,2011; cited from earlier work
EGFR = details: ref Asquith et al., 2019a, 2019b; Davis et al.,2011; cited from earlier work
YSK4 = details: ref Asquith et al., 2019a, 2019b; Davis et al.,2011; cited from earlier work
SLK = details: ref Asquith et al., 2019a, 2019b; Davis et al.,2011; cited from earlier work
AAK1 = AAK1 (Homo sapiens, UniProt Q2M2I8); assay: In vitro binding, dissociation constant
Sequence of AAK1 (Q2M2I8 whole entry): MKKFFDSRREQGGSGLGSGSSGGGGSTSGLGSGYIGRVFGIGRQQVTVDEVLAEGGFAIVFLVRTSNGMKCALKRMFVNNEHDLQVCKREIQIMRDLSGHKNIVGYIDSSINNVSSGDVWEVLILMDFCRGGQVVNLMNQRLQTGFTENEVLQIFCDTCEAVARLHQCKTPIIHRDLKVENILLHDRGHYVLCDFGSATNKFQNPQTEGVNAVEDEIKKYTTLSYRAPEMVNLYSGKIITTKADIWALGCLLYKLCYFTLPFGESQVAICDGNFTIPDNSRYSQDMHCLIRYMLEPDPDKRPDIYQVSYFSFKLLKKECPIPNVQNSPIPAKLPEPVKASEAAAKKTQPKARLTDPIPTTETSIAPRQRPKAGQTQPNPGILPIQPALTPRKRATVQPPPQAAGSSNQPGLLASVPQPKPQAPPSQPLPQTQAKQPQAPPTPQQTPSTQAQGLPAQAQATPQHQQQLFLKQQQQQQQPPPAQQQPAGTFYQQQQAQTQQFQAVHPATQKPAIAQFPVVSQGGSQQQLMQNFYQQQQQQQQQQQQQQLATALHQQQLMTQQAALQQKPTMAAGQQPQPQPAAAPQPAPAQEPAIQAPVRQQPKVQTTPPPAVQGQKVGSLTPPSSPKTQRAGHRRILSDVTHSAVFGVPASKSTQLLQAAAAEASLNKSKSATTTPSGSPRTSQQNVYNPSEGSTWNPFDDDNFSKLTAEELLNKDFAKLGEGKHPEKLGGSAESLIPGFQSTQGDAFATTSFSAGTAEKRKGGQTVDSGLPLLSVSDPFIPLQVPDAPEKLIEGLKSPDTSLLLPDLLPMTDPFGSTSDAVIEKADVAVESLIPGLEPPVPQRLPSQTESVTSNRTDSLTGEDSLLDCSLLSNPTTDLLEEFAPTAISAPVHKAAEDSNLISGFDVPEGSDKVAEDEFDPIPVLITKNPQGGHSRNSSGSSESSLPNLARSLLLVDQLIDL

[1] = alamarBlue viability, infected Vero E6 cells; type: cell-based; details: African green monkey, 24 hpi
BIKE = BIKE (Homo sapiens, UniProt Q9NSY1); assay: In vitro binding, dissociation constant
Sequence of BIKE (Q9NSY1 whole entry): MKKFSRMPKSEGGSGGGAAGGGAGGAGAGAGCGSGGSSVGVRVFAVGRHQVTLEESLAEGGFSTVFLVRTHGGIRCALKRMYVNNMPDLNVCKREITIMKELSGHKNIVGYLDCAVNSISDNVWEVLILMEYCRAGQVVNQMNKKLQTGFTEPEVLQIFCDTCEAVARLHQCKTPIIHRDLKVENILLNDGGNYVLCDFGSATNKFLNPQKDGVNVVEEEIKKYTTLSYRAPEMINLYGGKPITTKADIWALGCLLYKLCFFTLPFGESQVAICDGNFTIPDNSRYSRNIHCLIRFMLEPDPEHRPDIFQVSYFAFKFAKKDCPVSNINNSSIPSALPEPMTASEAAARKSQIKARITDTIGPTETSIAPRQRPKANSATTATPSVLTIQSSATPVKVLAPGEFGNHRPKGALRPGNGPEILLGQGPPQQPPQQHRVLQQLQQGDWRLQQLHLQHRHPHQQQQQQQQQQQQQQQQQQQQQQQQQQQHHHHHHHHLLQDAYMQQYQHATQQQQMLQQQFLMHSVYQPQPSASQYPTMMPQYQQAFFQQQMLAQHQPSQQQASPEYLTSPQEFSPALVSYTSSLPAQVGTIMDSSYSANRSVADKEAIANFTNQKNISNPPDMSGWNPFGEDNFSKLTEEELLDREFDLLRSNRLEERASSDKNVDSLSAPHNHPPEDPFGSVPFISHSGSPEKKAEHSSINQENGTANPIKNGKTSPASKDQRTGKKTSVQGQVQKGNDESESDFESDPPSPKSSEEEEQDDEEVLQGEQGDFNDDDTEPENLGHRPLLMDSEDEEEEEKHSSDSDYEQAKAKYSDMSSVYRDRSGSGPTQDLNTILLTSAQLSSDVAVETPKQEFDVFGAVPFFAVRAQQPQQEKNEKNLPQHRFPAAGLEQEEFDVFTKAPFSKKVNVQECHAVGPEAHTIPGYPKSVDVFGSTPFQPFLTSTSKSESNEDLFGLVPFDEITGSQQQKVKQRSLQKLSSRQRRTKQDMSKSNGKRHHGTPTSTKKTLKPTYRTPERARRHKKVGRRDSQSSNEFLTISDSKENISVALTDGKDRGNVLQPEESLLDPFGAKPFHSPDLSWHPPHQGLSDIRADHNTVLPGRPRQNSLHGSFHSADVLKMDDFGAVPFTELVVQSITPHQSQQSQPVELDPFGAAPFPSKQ

[2] = alamarBlue viability, infected Calu-3 cells; type: cell-based; details: human
ADCK3 = details: ref Asquith et al., 2019a, 2019b; cited from earlier work
NLK = details: ref Asquith et al., 2019a, 2019b; cited from earlier work
RIPK2 = details: ref Asquith et al., 2019a, 2019b; cited from earlier work
PDGFRβ = details: ref Davis et al.,2011; cited from earlier work

SMILES: CCS(=O)(=O)N1CC(CC#N)(n2cc(-c3ncnc4[nH]ccc34)cn2)C1 [Baricitinib, baricitinib]
- antiviral activity in Calu-3 cells (rSARS-CoV-2/Nluc): largely no antiviral activity
- JAK2 (Other targets, measure not stated) (JAK2): 5.7 nM
- TYK2 (Other targets, measure not stated) (TYK2): 53 nM

SMILES: C#Cc1cccc(Nc2ncnc3cc(OCCOC)c(OCCOC)cc23)c1 [Erlotinib, erlotinib]
- STK10 (Other targets, measure not stated) (STK10): 19 nM
- ErbB1 (Other targets, measure not stated) (EGFR): 0.7 nM
- YSK4 (Other targets, measure not stated) (YSK4): 25 nM
- SLK (Other targets, measure not stated) (SLK): 26 nM
- EC50 (rSARS-CoV-2/Nluc): > 20 µM

SMILES: C=CC(=O)Nc1cccc(-c2snc3cc(-c4ccc(N)c(OC)c4)cnc23)c1 [RMC-242, N-(3-(6-(4-amino-3-methoxyphenyl)isothiazolo [4,3-b]pyridin-3-yl)phenyl) acrylamide]
- Kd (AAK1): 4.1 µM
- EC50 (rSARS-CoV-2/Nluc): 1.6 µM
- CC50 at 24 h post infection [1]: 16 µM
- Kd (BIKE): > 15 µM
- CC50 at 24 h post infection [2]: > 20 µM

SMILES: COc1cc(Nc2ccnc3ccc(Br)cc23)cc(OC)c1OC [SGC-GAK-1]
- ADCK3 (Other targets, measure not stated) (ADCK3): 190 nM
- NLK (Other targets, measure not stated) (NLK): 520 nM
- RIPK2 (Other targets, measure not stated) (RIPK2): 110 nM
- EC50 (rSARS-CoV-2/Nluc): 2.3 µM
- CC50 at 24 h post infection [1]: > 20 µM
- CC50 at 24 h post infection [2]: > 20 µM

SMILES: CCN(CC)CCNC(=O)c1c(C)[nH]c(/C=C2\C(=O)Nc3ccc(F)cc32)c1C [Sunitinib, sunitinib]
- PDGFRβ (Other targets, measure not stated) (PDGFRβ): 2 nM
- EC50 (rSARS-CoV-2/Nluc): 2.9 µM
- CC50 at 24 h post infection [1]: 12.2 µM
- CC50 at 24 h post infection [2]: > 20 µM

From PMC9212491 (Antiviral Research, 2022)
